The results in this text go back to PubChem BioAssay (NCI).

Where “and” joins values, the source holds several entries; their conditions need not be identical. Identical values can stand only once.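 Cells were grown in 96-well plates and exposed to each compound for 48 hours at five concentrations; endpoints were interpolated linearly between bracketing concentrations, or set to the highest concentration if not reached. At the GI50, growth is halved. TGI marks complete inhibition of growth.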 Some results are limits rather than exact numbers.

Some test systems named below: A498 renal; ACHN renal; MOLT-4 leukemia; COLO 205 colon; NCI-H460 lung; IGROV1 ovarian; MALME-3M melanoma; M14 melanoma; SK-MEL-28 melanoma; HCC-2998 colon.
Common to all, as to assay: NCI anticancer screen, dose series, 48 h

Take `CCOC(=O)NC(=O)c1cn(CCN2CCN(c3ncnc4nc[nH]c34)CC2)c(=O)[nH]c1=O`: the TGI in the assay on A498 renal, in the assay on ACHN renal, with MOLT-4 leukemia, in the assay with COLO 205 colon, with NCI-H460 lung and in the assay on IGROV1 ovarian was > 100 µM each time. The TGI with MALME-3M melanoma, in the assay with M14 melanoma, in the assay on SK-MEL-28 melanoma and with HCC-2998 colon was > 100 µM in each case.
On to `CN(/N=C/c1cccc2cccnc12)c1ccccc1`, for which the TGI with A498 renal, in the assay with ACHN renal, in the assay on MOLT-4 leukemia, in the assay with COLO 205 colon, in the assay on NCI-H460 lung and in the assay on IGROV1 ovarian was > 100 µM in each case. For the same compound, the TGI with MALME-3M melanoma, in the assay on M14 melanoma, in the assay on SK-MEL-28 melanoma and with HCC-2998 colon was > 100 µM throughout.
Turning to `CCc1ccc(NC(=O)COC(=O)c2cc([N+](=O)[O-])ccc2Sc2nnnn2C)cc1`, the GI50 in the assay with A498 renal was 21.5 µM; in the assay on ACHN renal, 14.2 µM; in the assay with MOLT-4 leukemia it was 20.3 µM; in the assay with COLO 205 colon, 16 µM; in the assay with NCI-H460 lung, 13 µM; with IGROV1 ovarian, 24.3 µM. The GI50 in the assay on MALME-3M melanoma is 24.2 µM; with M14 melanoma it was 3.16 µM; in the assay with SK-MEL-28 melanoma, 9.94 µM; in the assay with HCC-2998 colon, 15.7 µM. Further, the TGI was 74.9 µM with A498 renal; 33.1 µM in the assay with ACHN renal; 81.6 µM with MOLT-4 leukemia; 33.8 µM in the assay with COLO 205 colon; 33.3 µM in the assay on NCI-H460 lung; 95.7 µM in the assay with IGROV1 ovarian. Moreover, the TGI is > 100 µM in the assay on MALME-3M melanoma, 26 µM with M14 melanoma, 28.8 µM with SK-MEL-28 melanoma and 29.2 µM in the assay on HCC-2998 colon.
For `CC[C@H](CO)Nc1nc(NCc2ccccc2)n2ncc(C(C)C)c2n1`, the GI50 was 1.25 µM in the assay with A498 renal; 0.808 µM in the assay with ACHN renal; 2.18 µM in the assay with MOLT-4 leukemia; 1.12 µM with COLO 205 colon; 1.05 µM in the assay with NCI-H460 lung; 0.782 µM in the assay with IGROV1 ovarian. For the same compound, the GI50 with MALME-3M melanoma is 2.6 µM; with M14 melanoma, 2 µM; in the assay with SK-MEL-28 melanoma, 1.16 µM; in the assay with HCC-2998 colon, 1.2 µM. For the same compound, the TGI was 3.44 µM with A498 renal; 10.7 µM with ACHN renal; 9.46 µM with MOLT-4 leukemia; 3.15 µM in the assay on COLO 205 colon; 10.9 µM in the assay with NCI-H460 lung; > 100 µM in the assay on IGROV1 ovarian. Also, the TGI with MALME-3M melanoma came to 6.99 µM; in the assay with M14 melanoma, 7.93 µM; in the assay with SK-MEL-28 melanoma, 3.82 µM; in the assay with HCC-2998 colon, 3.27 µM.
For `CCOc1ccccc1N=Nc1c(C)[nH]n(-c2nc(-c3ccccc3)cs2)c1=O`, the GI50 in the assay with A498 renal is 23.5 µM; in the assay on ACHN renal, 42.3 µM; with MOLT-4 leukemia it was > 100 µM; in the assay on COLO 205 colon, > 100 µM; in the assay on NCI-H460 lung, 37.5 µM; in the assay on IGROV1 ovarian it was 25.8 µM. In addition, the GI50 was 60.9 µM in the assay with MALME-3M melanoma, > 100 µM in the assay with M14 melanoma, > 84.9 µM in the assay on SK-MEL-28 melanoma and > 100 µM with HCC-2998 colon. For the same compound, the TGI was > 100 µM in the assay on A498 renal; > 100 µM in the assay on ACHN renal; > 100 µM in the assay with MOLT-4 leukemia; > 100 µM in the assay on COLO 205 colon; > 100 µM in the assay with NCI-H460 lung; > 85.3 µM in the assay with IGROV1 ovarian. Besides, the TGI with MALME-3M melanoma, in the assay on M14 melanoma, in the assay with SK-MEL-28 melanoma and in the assay on HCC-2998 colon was > 100 µM throughout.
With `CC1=C2C(=CC(C)(C)C2O)C(=O)C(C)(O)C12CC2` (centres undefined), the TGI in the assay on A498 renal came out at 0.0822 µM; in the assay with ACHN renal, 0.0373 µM; in the assay on MOLT-4 leukemia, 0.0245 µM; in the assay on COLO 205 colon, 0.0621 µM; in the assay with NCI-H460 lung, 0.0412 µM; in the assay with IGROV1 ovarian, 0.132 µM. Further, the TGI in the assay on MALME-3M melanoma was found to be 0.0337 µM; in the assay on M14 melanoma it was 0.0602 µM; in the assay on SK-MEL-28 melanoma it was 0.0865 µM; with HCC-2998 colon, 0.0268 µM. Besides, the GI50 with COLO 205 colon is 0.0191 µM.
As for `O=C(NC[C@H](O)CO)c1ccncc1Nc1ccc(I)cc1F`, the GI50 with A498 renal was 0.03 µM and 0.0394 µM; in the assay on ACHN renal, > 2.47 µM and 6.98 µM; with MOLT-4 leukemia, > 79.9 µM; in the assay with COLO 205 colon, 0.00323 µM and < 0.01 µM; in the assay with NCI-H460 lung it was > 10 µM and 11.8 µM; in the assay with MALME-3M melanoma it was 0.00242 µM and < 0.01 µM. Besides, the GI50 with M14 melanoma was 0.0031 µM and < 0.01 µM; in the assay with SK-MEL-28 melanoma it was 0.00334 µM and < 0.0104 µM; in the assay on HCC-2998 colon, 0.00358 µM and 0.019 µM. Also, the TGI was 0.417 µM and 0.517 µM with A498 renal; > 100 µM in the assay with ACHN renal; > 100 µM in the assay on MOLT-4 leukemia; > 100 µM in the assay on COLO 205 colon; > 100 µM with NCI-H460 lung; > 100 µM with IGROV1 ovarian. Moreover, the TGI was 0.0972 µM and < 0.0162 µM in the assay with MALME-3M melanoma; > 3.52 µM and 10.8 µM in the assay on M14 melanoma; > 8.4 µM and 9.22 µM with HCC-2998 colon.
`C1CN(SSN2CCOCC2)CCO1`: the GI50 was > 100 µM with A498 renal; 81 µM in the assay with ACHN renal; 47.3 µM in the assay on MOLT-4 leukemia; 25 µM with COLO 205 colon; 28.3 µM in the assay on NCI-H460 lung; 70.7 µM in the assay with IGROV1 ovarian. Further, the GI50 in the assay on MALME-3M melanoma is 53.6 µM; with M14 melanoma, 20.6 µM; in the assay with SK-MEL-28 melanoma, > 100 µM; with HCC-2998 colon it was > 100 µM. Also, the TGI in the assay on A498 renal was > 100 µM; with ACHN renal it was > 100 µM; in the assay on MOLT-4 leukemia, > 100 µM; in the assay on COLO 205 colon, 64 µM; with NCI-H460 lung, > 100 µM; with IGROV1 ovarian it was > 100 µM. Also, the TGI in the assay with MALME-3M melanoma is > 100 µM; in the assay with M14 melanoma, 48.9 µM; in the assay with SK-MEL-28 melanoma, > 100 µM; in the assay with HCC-2998 colon, > 100 µM.
`COc1c2c(nc3ccccc13)-c1cc3c(c(=O)n1C2)COC(=O)C3(O)CC(=O)N1CCOCC1` (centres undefined): the TGI in the assay on A498 renal is 46.4 µM; in the assay with ACHN renal, 14.7 µM; in the assay with MOLT-4 leukemia it was 5.03 µM; with COLO 205 colon it was > 86.5 µM; in the assay with NCI-H460 lung, 30.9 µM; with IGROV1 ovarian, 98.7 µM. Besides, the TGI with MALME-3M melanoma is > 100 µM; in the assay with M14 melanoma, 41.4 µM; in the assay with SK-MEL-28 melanoma it was > 98.2 µM; in the assay on HCC-2998 colon, 75.8 µM.
